One series concerns HTT. The series can be described thus: HiBiT protein abundance assay, HTT (K562 HiBiT knock-in). It is filed as cell-based, human. As to conditions: HiBiT knock-in K562 cells, 24 hours, top dose 10 μM. Summed up:
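Tagged-protein levels were measured as HiBiT/LgBiT luminescence in lysed K562 knock-in cells exposed to serially diluted compound (up to 10 μM final) for 24 hours. A four-parameter logistic regression of control-normalized signal yielded the IC50.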
For orientation: With HiBiT, luminescence reflects the tagged protein that the partner subunit can reach.

In another series the test system is Target C. The series can be described thus: RT-qPCR canonical junction panel assay, Target C mRNA. As to conditions: Table 4, read-out: Target C IC50 (decrease in CJ mRNA levels). It is filed as cell-based. Summed up: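 A673 or K562 cells treated with compound; CJ mRNA quantified by junction-spanning RT-qPCR probe after cDNA synthesis, normalised to GAPDH, GUSB or PPIA and DMSO (2^−ΔΔCt), scaled to set ΔCt assay window; IC50 from 4-parameter fit of CJ decrease.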
A general note: Real-time PCR tracks product formation cycle by cycle.

Another series relates to K562 cells. Description: Cell Titer Glo 2.0 cell viability (toxicity) assay, K562. As to conditions: 500 cells/well, 72 hours. (ATP-based viability assays read luminescence as a measure of living cells.)

pIC50: −log10 of the molar value. Structures can show the parent of a compound that is named as a salt. Some results are limits rather than exact numbers.

As for `Cc1nc2c(C)c(O)c(-c3ccc4cc(N5CC[C@@H](NC6CC6)C5)ncc4n3)cc2o1` [Compound 440, 6-{6-[(3R)-3-(cyclopropylamino)pyrrolidin-1-yl]-1,7-naphthyridin-2-yl}-2,4-dimethyl-1,3-benzoxazol-5-ol], the negative-log IC50 (pIC50) in the series with HTT is > 7.00; with Target C, 6.00 to 7.00. Moreover, the “Effect of Exemplary Compounds on Cell Viability, K562” value (“Effect of Exemplary Compounds” below) in the series with K562 cells was “B (B represents 100-1000 nM)”.
The like results for `Cc1nc2c(C)c(O)c(-c3ccc4cc(N5CC[C@H](NC6CC6)C5)ncc4n3)cc2o1` [Compound 441, 6-{6-[(3S)-3-(cyclopropylamino)pyrrolidin-1-yl]-1,7-naphthyridin-2-yl}-2,4-dimethyl-1,3-benzoxazol-5-ol] were, in that order, 6.00 to 7.00, 6.00 to 7.00 and “B (B represents 100-1000 nM)”.
The corresponding values for `Cn1cc2cc(-c3ccc4nc(C5CCNC6(CC6)C5)ncc4n3)c(O)cc2n1` (stereo not drawn) [Compound 448, 5-(2-{4-azaspiro[2.5]octan-7-yl}pyrido[3,2-d]pyrimidin-6-yl)-2-methylindazol-6-ol] are 6.00 to 7.00, 5.00 to 6.00 and “C (C represents 1000-9999 nM)”.
Regarding `Cn1cc2cc(-c3ccc4cc(N5CCC(NC(C)(C)C)C5)ncc4n3)c(O)cc2n1` (stereo not drawn) [Compound 449, 5-{6-[3-(tert-butylamino)pyrrolidin-1-yl]-1,7-naphthyridin-2-yl}-2-methylindazol-6-ol], the pIC50 with HTT is 6.00 to 7.00; in the series with Target C, 5.00 to 6.00. In the series on K562 cells, the “Effect of Exemplary Compounds” value is recorded as “B (B represents 100-1000 nM)”.
The like results for `Cc1nc2cc(O)c(-c3ccc4cc(N5CC[C@H](NC(C)(C)C)C5)ncc4n3)cc2o1` [Compound 450] were, in that order, 5.00 to 6.00, 5.00 to 6.00 and “C (C represents 1000-9999 nM)”.
The like results for `Cc1c(O)c(-c2cc(Cl)c3cc(N4CCNCC4)cc(C)c3n2)cc2cn(C)nc12` [Compound 482, 5-[4-chloro-8-methyl-6-(piperazin-1-yl)577yrrolidi-2-yl]-2,7-dimethylindazol-6-ol hydrochloride] were, in that order, 6.00 to 7.00, 5.00 to 6.00 and “A (A represents <100 nM)”.
Consider `Cc1cc2nc(-c3cc4cn(C)nc4c(C)c3O)cc(Cl)c2cc1N1CCNCC1` [Compound 484, 5-[4-chloro-7-methyl-6-(piperazin-1-yl)586yrrolidi-2-yl]-2,7-dimethylindazol-6-ol], for which the pIC50 in the series with HTT and in the series on Target C was 5.00 to 6.00 throughout. The “Effect of Exemplary Compounds” value in the series with K562 cells is “B (B represents 100-1000 nM)”.
Turning to `CNC1CCN(c2cc3c(Cl)cc(-c4cc5cn(C)nc5c(C)c4O)nc3cc2C)C1` (stereo not drawn) [Compound 486, 5-{4-chloro-7-methyl-6-[3-(methylamino)pyrrolidin-1-yl]quinolin-2-yl}-2,7-dimethylindazol-6-ol], the pIC50 with HTT and with Target C was 5.00 to 6.00 each time. Moreover, in the series on K562 cells, the “Effect of Exemplary Compounds” value is “B (B represents 100-1000 nM)”.

In general, pIC50 refers to the negative decadic logarithm of the IC50, by convention in mol/L.

The record behind these values is patent publication US20250092065A1, “2-(INDAZOL-5-YL)-6-(PIPERIDIN-4-YL)-1,7-NAPHTHYRIDINE DERIVATIVES AND RELATED COMPOUNDS AS MODULATORS FOR SPLICING NUCLEIC ACIDS AND FOR THE TREATMENT OF PROLIFERATIVE DISEASES” (REMIX THERAPEUTICS INC., priority 2022, published 2025).
